Results reported in patent US6001872A, “Water soluble transplatinum complexes with anti-cancer activity and method of using same” (priority 1999, dated 1999).
“Also recorded” adds a separate entry of the source.

How the values were obtained:
[1] = system: murine L1210 cisplatin-sensitive leukemia cells; assay: Cytotoxicity: cell-growth inhibition in murine L1210 cisplatin-sensitive leukemia cells, 72-hour drug incubation; assay type: cell-based; conditions: for IC50: 72-hour drug incubation, read-out: ID50 (50% inhibitory drug concentration); for cytotoxicity compared with cisplatin: in vitro
Protocol: Studies were performed in vitro to assess the cytotoxicity of trans-[Pt(PyAc-N,O)Cl(NH3)] in comparison to several relevant Pt compounds. Cytotoxicity was monitored by cell-growth inhibition experiments in murine L1210 cisplatin-sensitive leukemia cells. The L1210 cell line has been used as a prognosticator of human antitumor activity for some time [Wolpert-DeFilippes, M. K., "Antitumor Activity of Cisplatin Analogs" in: Cisplatin. Current Status and Developments, Prestayko, A. W., Crooke, S. T., and Carter, S. K., eds, Academic Press, (London) 1980, pp. 183-192.]. A separate, non-treated culture was used as a control for these investigations.

[2] = presence of a planar ligand, trans geometry; cited from earlier work
[3] = in vivo; cited from earlier work
[4] = N,O-chelate formation (displacement of chloride by carboxylate, complex 1 to complex 2); assay type: physicochemical
Description: The details of this synthesis may be found in Example 1 below. The preparation utilizes the anionic N,O-chelating ligand pyridine-2-yl-acetate (PyAc), which introduces a carboxylate donor cis to the nitrogen atom of the planar ligand. The bidentate ligand was used in its O-protected form, i.e., the corresponding methylester (PyAcMe). Formation of the N,O-chelate was achieved via the intermediate dichloro form, trans-[PtCl2 (NH3)(PyAcH)].H2 O (complex 1.H2 O) at neutral pH.
For the purposes of this invention, it should be further noted that the form for administration to patients may be either complex 1 or complex 2, since the former would spontaneously form the N-O chelate under physiological conditions.

Compound | IC50 [1] [nM] | cytotoxicity compared with cisplatin [1] | other results
N.N.[Cl][Pt][Cl] [cisplatin, cis-[PtCl2 (NH3)2]] | 430 | – | –
N.[Cl][Pt][Cl].c1ccc2ncccc2c1 [trans-[PtCl2 (NH3)(quinoline)]] | – | – | in vitro cytotoxicity, effect of planar ligand [2]: dramatically enhances the in vitro cytotoxicity
N.N.[Cl][Pt+2][Cl] [transplatin, trans-[PtCl2 (NH3)2]] | 14000 | inactive | therapeutic/biological activity [3]: biologically inactive; also recorded: therapeutically inactive
cis-[Pt(PyAc-N,O)Cl(NH3)] | > 20000 | inactive | cytotoxicity compared with cisplatin ([1]; listed as cis-isomer): must be considered inactive
trans-[Pt(PyAc-N,O)Cl(NH3)] [Complex 2] | 880 | comparably cytotoxic to cisplatin itself | solubility in water: 4 mmol 1-1
trans-[PtCl2 (NH3)(PyAcH)] [Complex 1] | – | – | displacement of chloride by carboxylate ([4]; e.g. in 10^-2 M HCl): remarkably facile; formation of complex 2 from complex 1 ([4]; pH values greater than 2): readily formed
